Laboratory results reported in publication PMC11845477, “Exploring the principles behind antibiotics with limited resistance” (Nature Communications, 2025).

How the values were obtained:
[1] = system: P. aeruginosa ATCC BAA-3107 (SEN) and P. aeruginosa LESB58 (MDR); assay: microbe, parasite or virus in culture; assay type: cell-based, Pseudomonas aeruginosa; conditions: for MIC: across three biological replicates
How it was run: (§1)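 Broth microdilution in cation-adjusted Mueller-Hinton Broth 2 (except SCH79797), 11–16-step serial dilutions, 5 × 10^5 cells/mL, 37 °C with shaking for 18 h, 2 replicates. MIC is the lowest concentration giving complete growth inhibition (OD600 < 0.05); relative MIC = MIC evolved/MIC ancestor.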

[2] = system: E. coli ATCC 25922 (SEN) and E. coli NCTC13846 (MDR); assay: Adaptive laboratory evolution (ALE), relative MIC of evolved lines; assay type: cell-based, Escherichia coli; conditions: for Relative MIC: ALE
How it was run: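 Ten parallel populations per antibiotic–ancestor pair were evolved in MHB at 37 °C, starting near 50% growth-inhibiting drug. Every 72 h they were passaged into 0.5–2.5× increasing concentrations, keeping the highest-drug well with OD600 > 0.2.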

[3] = system: K. pneumoniae ATCC 10031 (SEN) and K. pneumoniae ATCC 700603 (MDR); assay: microbe, parasite or virus in culture; assay type: cell-based, Klebsiella pneumoniae; conditions: for MIC: across three biological replicates
How it was run: as §1

[4] = system: E. coli ATCC 25922 (SEN) and E. coli NCTC13846 (MDR); assay: microbe, parasite or virus in culture; assay type: cell-based, Escherichia coli; conditions: for MIC: across three biological replicates
How it was run: as §1

[5] = Pseudomonas aeruginosa ATCC BAA-3107 (PA-SEN)
[6] = Pseudomonas aeruginosa LESB 58 (PA-MDR)
[7] = Klebsiella pneumoniae ATCC 10031 (KP-SEN)
[8] = Klebsiella pneumoniae ATCC 700603 (KP-MDR)
[9] = Escherichia coli ATCC 25922 (EC-SEN)
[10] = Escherichia coli NCTC 13846 (EC-MDR)
[11] = EC-SEN (E. coli ATCC 25922), evolved line 1 of the given antibiotic
[12] = EC-SEN (E. coli ATCC 25922), evolved line 3 of the given antibiotic
[13] = EC-SEN (E. coli ATCC 25922), evolved line 7 of the given antibiotic
[14] = EC-SEN (E. coli ATCC 25922), evolved line 9 of the given antibiotic
[15] = Klebsiella pneumoniae ATCC 10031 (KP-SEN), ancestor strain, sheet fig 2a
[16] = ancestor KP-SEN (Klebsiella pneumoniae ATCC 10031)
[17] = ancestor EC-SEN (Escherichia coli ATCC 25922)

POL7306 was tested, and the MIC [1, 5] was 2 µg/mL, the MIC [1, 6] was 8 µg/mL and the “Relative MIC” value ([2]; Escherichia coli ATCC 25922 (EC-SEN), evolved line 1) was 2. The “Relative MIC” value ([2]; Escherichia coli ATCC 25922 (EC-SEN), evolved line 2) was 8, the “Relative MIC” value ([2]; Escherichia coli ATCC 25922 (EC-SEN), evolved line 3) was 4 and the “Relative MIC” value ([2]; Escherichia coli ATCC 25922 (EC-SEN), evolved line 4) was 4. For the same substance, the “Relative MIC” value ([2]; Escherichia coli ATCC 25922 (EC-SEN), evolved line 5) was 4, the “Relative MIC” value ([2]; Escherichia coli ATCC 25922 (EC-SEN), evolved line 6) was 4 and the “Relative MIC” value ([2]; Escherichia coli ATCC 25922 (EC-SEN), evolved line 7) was 4. For the same substance, the “Relative MIC” value ([2]; Escherichia coli ATCC 25922 (EC-SEN), evolved line 8) was 8, the “Relative MIC” value ([2]; Escherichia coli ATCC 25922 (EC-SEN), evolved line 9) was 8 and the “Relative MIC” value ([2]; Escherichia coli ATCC 25922 (EC-SEN), evolved line 10) was 4. For the same substance, the “Relative MIC” value ([2]; Escherichia coli NCTC 13846 (EC-MDR), evolved line 1) was 2, the “Relative MIC” value ([2]; Escherichia coli NCTC 13846 (EC-MDR), evolved line 2) was 1 and the “Relative MIC” value ([2]; Escherichia coli NCTC 13846 (EC-MDR), evolved line 3) was 1. For the same substance, the “Relative MIC” value ([2]; Escherichia coli NCTC 13846 (EC-MDR), evolved line 4) was 1, the “Relative MIC” value ([2]; Escherichia coli NCTC 13846 (EC-MDR), evolved line 5) was 1 and the “Relative MIC” value ([2]; Escherichia coli NCTC 13846 (EC-MDR), evolved line 6) was 2. The “Relative MIC” value ([2]; Escherichia coli NCTC 13846 (EC-MDR), evolved line 7) was 2, the “Relative MIC” value ([2]; Escherichia coli NCTC 13846 (EC-MDR), evolved line 8) was 4 and the “Relative MIC” value ([2]; Escherichia coli NCTC 13846 (EC-MDR), evolved line 9) was 1. For the same substance, the “Relative MIC” value ([2]; Escherichia coli NCTC 13846 (EC-MDR), evolved line 10) was 1, the MIC [3, 7] was 1 µg/mL and the MIC [3, 8] was 1 µg/mL. It also gave an MIC [4, 9] of 1 µg/mL and an MIC [4, 10] of 4 µg/mL.
For Tridecaptin M152-P3, the MIC [1, 5] was 32 µg/mL, the MIC [1, 6] was >32 µg/mL and the MIC of evolved line [2, 11] was 32 µg/mL. It also gave an MIC of evolved line ([2]; EC-SEN (E. coli ATCC 25922), evolved line 2 of the given antibiotic) of 64 µg/mL, an MIC of evolved line [2, 12] of 32 µg/mL and an MIC of evolved line ([2]; EC-SEN (E. coli ATCC 25922), evolved line 4 of the given antibiotic) of 32 µg/mL. The MIC of evolved line ([2]; EC-SEN (E. coli ATCC 25922), evolved line 6 of the given antibiotic) was 32 µg/mL, the MIC of evolved line [2, 13] was 32 µg/mL and the MIC of evolved line ([2]; EC-SEN (E. coli ATCC 25922), evolved line 8 of the given antibiotic) was 32 µg/mL. The MIC of evolved line [2, 14] was 32 µg/mL, the MIC of evolved line ([2]; EC-SEN (E. coli ATCC 25922), evolved line 10 of the given antibiotic) was 64 µg/mL and the MIC of ancestor [3, 15] was 4 µg/mL. For the same substance, the MIC [3, 7] was 4 µg/mL, the MIC [3, 8] was 8 µg/mL and the MIC of ancestor [3, 16] was 4 µg/mL. The MIC of ancestor ([4]; Escherichia coli ATCC 25922 (EC-SEN), ancestor strain, sheet fig 2a) was 4 µg/mL, the MIC [4, 9] was 4 µg/mL and the MIC [4, 10] was 8 µg/mL. The MIC of ancestor [4, 17] was 4 µg/mL.
Substance polymyxin-B has an MIC of ancestor ([1]; P. aeruginosa ATCC BAA 3107 (PA-SEN), ancestor strain, sheet fig 2a) of 1 µg/mL, an MIC of ancestor ([1]; P. aeruginosa LESB 58 (PA-MDR), ancestor strain, sheet fig 2a) of 2 µg/mL and an MIC of ancestor ([1]; Pseudomonas aeruginosa LESB 58 (PA-MDR), ancestor) of 2 µg/mL. For the same substance, the MIC of ancestor ([1]; ancestor PA-MDR (Pseudomonas aeruginosa LESB 58)) was 2 µg/mL, the MIC of ancestor ([1]; ancestor PA-SEN (Pseudomonas aeruginosa ATCC BAA 3107)) was 1 µg/mL and the MIC of evolved line ([2]; EC-MDR NCTC 13846, evolved line 3) was 64 µg/mL. For the same substance, the MIC of evolved line ([2]; EC-MDR NCTC 13846, evolved line 5) was 64 µg/mL, the MIC of evolved line ([2]; EC-MDR NCTC 13846, evolved line 6) was 64 µg/mL and the MIC of evolved line ([2]; EC-MDR NCTC 13846, evolved line 8) was 32 µg/mL. For the same substance, the MIC of evolved line ([2]; EC-MDR NCTC 13846, evolved line 9) was 64 µg/mL, the MIC of evolved line ([2]; EC-MDR NCTC 13846, evolved line 10) was 64 µg/mL and the MIC of evolved line [2, 11] was 64 µg/mL. It also gave an MIC of evolved line [2, 12] of 64 µg/mL, an MIC of evolved line [2, 13] of 64 µg/mL and an MIC of evolved line [2, 14] of 64 µg/mL. For the same substance, the MIC of ancestor [3, 15] was 2 µg/mL, the MIC of ancestor ([3]; Klebsiella pneumoniae ATCC 700603 (KP-MDR), ancestor) was 1 µg/mL and the MIC of ancestor ([3]; Klebsiella pneumoniae ATCC 700603 (KP-MDR), ancestor strain, sheet fig 2a) was 1 µg/mL. For the same substance, the MIC of ancestor [3, 16] was 2 µg/mL, the MIC of ancestor ([4]; E. coli ATCC 25922 (EC-SEN), ancestor strain, sheet fig 2a) was 1 µg/mL and the MIC of ancestor ([4]; E. coli NCTC 13846 (EC-MDR), ancestor strain, sheet fig 2a) was 4 µg/mL. For the same substance, the MIC of ancestor ([4]; Escherichia coli NCTC 13846 (EC-MDR), ancestor) was 4 µg/mL and the MIC of ancestor [4, 17] was 1 µg/mL.
